Converted amounts (≈) assume the structure as drawn. Where two headings read alike, the source gives them in different places.
How the values were obtained:
[1] = tested on: Bacillus subtilis ATCC 6623 (Bs); assay: MIC, microdilution (CLSI); assay type: cell-based; settings: ATCC6623
Procedure: (§1) Compounds were dissolved in dimethyl sulfoxide (DMSO) to achieve a starting concentration of 32 µg/mL as described by us previously. Compounds were further diluted two-fold across the 96-well honeycomb plate columns in cation adjusted Mueller Hinton broth (CAMHB), and bacterial culture was added. Plates were incubated for 18–20 h at 35 ℃ before determining the minimum concentrations at which wells had no visible turbidity to the naked eye. The MIC values were determined from at least a duplicate result obtained from three independent experiments using fresh bacterial cultures on different days.

[2] = tested on: E. faecalis ATCC 29212 (Ef12); assay: MIC, microdilution (CLSI); assay type: cell-based; settings: Enterococcus faecalis, ATCC29212
Procedure: as §1

[3] = tested on: E. faecalis ATCC 51299 (Ef99); assay: MIC, microdilution (CLSI); assay type: cell-based; settings: Enterococcus faecalis, ATCC 51299 / VRE
Procedure: as §1

[4] = tested on: E. faecium ATCC 700221 (Ef21); assay: MIC, microdilution (CLSI); assay type: cell-based; settings: Enterococcus faecium, ATCC 700221 / VRE
Procedure: as §1

[5] = tested on: S. aureus ATCC 25923 (Sa23); assay: MIC, microdilution (CLSI); assay type: cell-based; settings: Staphylococcus aureus, ATCC25923
Procedure: as §1

[6] = tested on: S. aureus ATCC 33591 (Sa91); assay: MIC, microdilution (CLSI); assay type: cell-based; settings: Staphylococcus aureus, ATCC33591
Procedure: as §1

[7] = tested on: S. aureus ATCC 33592 (Sa92); assay: MIC, microdilution (CLSI); assay type: cell-based; settings: Staphylococcus aureus, ATCC33592
Procedure: as §1

[8] = tested on: S. aureus ATCC 700699 (Sa99); assay: MIC, microdilution (CLSI); assay type: cell-based; settings: Staphylococcus aureus, ATCC700699
Procedure: as §1

[9] = tested on: S. aureus BAA-2312 (Sa12); assay: MIC, microdilution (CLSI); assay type: cell-based; settings: Staphylococcus aureus, BAA2312
Procedure: as §1

[10] = tested on: S. epidermidis ATCC 700296 (Se); assay: MIC, microdilution (CLSI); assay type: cell-based; settings: Staphylococcus epidermidis, ATCC700296
Procedure: as §1

[11] = tested on: S. aureus biofilms (Sa23); assay: Biofilm eradication (MBEC), Calgary Biofilm Device; assay type: cell-based, Staphylococcus aureus
Procedure: (§2) Minimum biofilm eradication concentration (MBEC) was determined using a Calgary device using the protocol reported elsewhere with some modifications. The Calgary device is a 96-well plate with a lid containing pegs to establish biofilms. Bacteria from an overnight plate culture were suspended to a 0.5 McFarland turbidity, then diluted 1:100 in a CAMHB containing 1% glucose which was inoculated in the 96 wells (150 μL in each well) and incubated at 35 °C for 24 h to establish biofilm on the pegs. The lid was then removed, washed with PBS in a fresh 96 well plate, then transferred to another 96-well plate containing 2-fold serial dilutions of the test compounds dissolved in PBS (150 μL total volume in each well). This plate was called the “challenge plate”. The challenge plate was incubated for an additional 24 h, and the lid was transferred to the next 96-well plate containing fresh CAMHB media with 1% glucose (180 μL) and further incubated for 24 h. […] All the compounds were tested in a minimum of three independent experiments.

[12] = tested on: E. faecalis biofilms (Efs12); assay: Biofilm eradication (MBEC), Calgary Biofilm Device; assay type: cell-based
Procedure: as §2

[13] = Cytotoxicity assay (resazurin); assay type: cell-based; settings: human, HEK-293 cells, 24 h treatment, n = 3
Procedure: The human embryonic kidney cell line (HEK-293) was used to assess the cytotoxicity of the antibiotics as described by us previously. HEK-293 cells were cultured in Dulbecco’s modified eagle’s medium (DMEM) containing 10% Fetal Bovine Serum (FBS) and incubated at 37 °C in the presence of 5% carbon dioxide. HEK-293 cells were cultured in 96-well black plates with 6000 cells per well for the first 24 h followed by treatment with a range of concentrations of antibiotics dissolved in DMSO for the next 24 h. After the second period of incubation, resazurin (40 µL of 0.15 mg/mL) was added to each well and incubated for an additional 4 h. Reduction of resazurin was measured fluorometrically with excitation wavelength at 560 nm and emission at 590 nm using BioTek™ Cytation™5 plate reader. Percentage viability of HEK cells for each range of concentrations was calculated, taking the fluorescence value of the wells treated with DMSO as a reference, using Microsoft® Excel® for Office 365 MSO. IC50 values were computed using the calculated percentage viability values through data processing in Graphpad Prism 7 for Windows, Version 7.04.

[14] = tested on: S. aureus ATCC 700699 persisters; assay: Persister viability assay; assay type: cell-based, Staphylococcus aureus; settings: 32× MIC, 4 h, S. aureus ATCC 700699 persisters
Procedure: The persister assay was performed following the methodology described previously. Briefly, for persister viability assays, S. aureus ATCC 700699 strain (MRSA) was grown to stationary phase in CAMHB medium by shaking at 200 rpm in a shaking incubator for 24 h at 35 °C. […] After incubation, 400 µL aliquot was washed, serially diluted in PBS, and plated in blood agar plate for viable colony count.

Gram-positive bacteria = assay: MIC across the tested strains; assay type: cell-based; settings: against several bacterial strains
Procedure: as §1

[15] = tested on: S. aureus and E. faecalis biofilms; assay: Biofilm eradication, S. aureus and E. faecalis; assay type: cell-based
Procedure: as §2

[16] = tested on: MRSA (S. aureus ATCC 700699); assay: Time Kill Assay; assay type: cell-based, Staphylococcus aureus; settings: 4× MIC, positive controls
[17] = Bs, Bacillus subtilis ATCC 6623, n = 3, read-out: MIC
[18] = Ef12, antibiotic susceptible E. faecalis ATCC 29212, n = 3, read-out: MIC
[19] = Ef99, vancomycin-resistant (VRE) E. faecalis ATCC 51299, n = 3, read-out: MIC
[20] = Ef21, vancomycin-resistant (VRE) E. faecium ATCC 700221, n = 3, read-out: MIC
[21] = Sa23, antibiotic susceptible S. aureus ATCC 25923, n = 3, read-out: MIC
[22] = Sa91, methicillin-resistant S. aureus ATCC 33591, n = 3, read-out: MIC
[23] = Sa92, methicillin-resistant S. aureus ATCC 33592, n = 3, read-out: MIC
[24] = Sa99, methicillin-resistant S. aureus ATCC 700699, n = 3, read-out: MIC
[25] = Sa12, methicillin-resistant S. aureus BAA-2312, n = 3, read-out: MIC
[26] = Se, S. epidermidis ATCC 700296, n = 3, read-out: MIC

SMILES	MIC [1, 17] [µg/mL]	MIC [2, 18] [µg/mL]	MIC [3, 19] [µg/mL]	MIC [4, 20] [µg/mL]	MIC [5, 21] [µg/mL]	MIC [6, 22] [µg/mL]	MIC [7, 23] [µg/mL]	MIC [8, 24] [µg/mL]	MIC [9, 25] [µg/mL]	MIC [10, 26] [µg/mL]	MBEC [11] [µg/mL]	MBEC [12] [µg/mL]	IC50 at 24 h [13] [µg/mL]	activity against persisters [14]	other results
O=C(O)c1ccc(-n2cc(CNc3ccc(Oc4ccccc4)cc3)c(-c3cc(C(F)(F)F)cc(C(F)(F)F)c3)n2)cc1 [Compound 5, 4-[3-[3,5-Bis(trifluoromethyl)phenyl]-4-[(4-phenoxyanilino)methyl]pyrazol-1-yl] benzoic acid]	2 (≈ 3.35 µM)	2 (≈ 3.35 µM)	1 (≈ 1.67 µM)	1 (≈ 1.67 µM)	1 (≈ 1.67 µM)	1 (≈ 1.67 µM)	1 (≈ 1.67 µM)	2 (≈ 3.35 µM)	2 (≈ 3.35 µM)	4 (≈ 6.69 µM)	>32	>32	9.15 (≈ 15.3 µM)	partial activity	MIC (Gram-positive bacteria): 1 µg/mL (≈ 1.67 µM); biofilm eradication property [15]: did not show any appreciable biofilm eradication property
O=C(O)c1ccc(-n2cc(CNc3cc(Cl)c(F)c(Cl)c3)c(-c3cc(C(F)(F)F)cc(C(F)(F)F)c3)n2)cc1 [Compound 28, 4-[3-[3,5-Bis(trifluoromethyl)phenyl]-4-[(3,5-dichloro-4-fluoro-anilino)methyl]pyraz-ol-1-yl] benzoic acid]	1 (≈ 1.69 µM)	2 (≈ 3.38 µM)	2 (≈ 3.38 µM)	1 (≈ 1.69 µM)	1 (≈ 1.69 µM)	1 (≈ 1.69 µM)	1 (≈ 1.69 µM)	1 (≈ 1.69 µM)	1 (≈ 1.69 µM)	2 (≈ 3.38 µM)	–	2	7 to 8 (≈ 11.8 to 13.5 µM)	very effective	MBEC values [15]: ≥ 1 µg/mL
CN[C@H](CC(C)C)C(=O)N[C@H]1C(=O)N[C@@H](CC(N)=O)C(=O)N[C@H]2C(=O)N[C@H]3C(=O)N[C@H](C(=O)N[C@H](C(=O)O)c4cc(O)cc(O)c4-c4cc3ccc4O)[C@H](O)c3ccc(c(Cl)c3)Oc3cc2cc(c3O[C@@H]2O[C@H](CO)[C@@H](O)[C@H](O)[C@H]2O[C@H]2C[C@](C)(N)[C@H](O)[C@H](C)O2)Oc2ccc(cc2Cl)[C@H]1O [V, Vancomycin, reference compound]	–	–	–	–	–	–	–	–	–	–	>32	>32	–	failed to demonstrate persister kill activity	MIC ([1]; Bacillus subtilis): 0.25 µg/mL (≈ 0.173 µM); MIC [2]: 2 µg/mL (≈ 1.38 µM); MIC [3]: > 32 µg/mL; MIC [4]: > 32 µg/mL; MIC [5]: 1 µg/mL (≈ 0.69 µM); MIC [6]: 2 µg/mL (≈ 1.38 µM); MIC [7]: 2 µg/mL (≈ 1.38 µM); MIC [8]: 4 µg/mL (≈ 2.76 µM); MIC [9]: 0.5 µg/mL (≈ 0.345 µM); MIC [10]: 2 µg/mL (≈ 1.38 µM); time to eliminate >99.9% CFUs [16]: 8 h
